The values that follow are results of earlier work, collected in patent publication US20240122227A1, “AEROSOLIZABLE MATERIAL” (Nicoventures Trading Limited, priority 2019, published 2024).

For the series, the target named is CB2 receptor compared to the CB1 receptor (Homo sapiens, UniProt P34972). Particulars: see Br J Pharmacol. 2001 October; 134(4): 845-852.
Chain of CB2 receptor compared to the CB1 receptor (P34972 whole entry): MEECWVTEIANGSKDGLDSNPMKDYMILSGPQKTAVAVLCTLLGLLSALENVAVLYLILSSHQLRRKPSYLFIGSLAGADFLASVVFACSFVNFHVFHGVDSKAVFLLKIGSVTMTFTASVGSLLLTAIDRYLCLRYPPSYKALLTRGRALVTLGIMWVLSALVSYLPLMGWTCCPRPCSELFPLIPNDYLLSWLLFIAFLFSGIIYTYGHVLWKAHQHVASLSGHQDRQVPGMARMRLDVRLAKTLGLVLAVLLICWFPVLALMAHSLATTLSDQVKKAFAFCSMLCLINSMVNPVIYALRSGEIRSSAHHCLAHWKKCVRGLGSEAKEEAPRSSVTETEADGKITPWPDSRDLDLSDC

Turning to `C=C(C)[C@H]1CCC(C)=C[C@@H]1c1c(O)cc(CCCCC)cc1O` [(+)-cannabidiol], the “selectivity for the CB2 receptor compared to the CB1 receptor” value is given as “increased selectivity for the CB2 receptor compared to the CB1 receptor”.

Regarding `C=C(C)[C@@H]1CCC(C)=C[C@H]1c1c(O)cc(CCCCC)cc1O` [(−)-cannabidiol], the “selectivity for the CB2 receptor compared to the CB1 receptor” value is given as “does not show any selectivity between the two receptors”.
